Experiments:
[1] = Inhibition of Met-mediated tumorigenesis in HGF-stimulated human GTL16 cells assessed as impairment in anchorage-independent growth by soft agar growth assay
[2] = Inhibition of Met-mediated tumorigenesis in HGF-stimulated human HepG2 cells assessed as impairment in anchorage-independent growth by soft agar growth assay
[3] = Inhibition of TPR-fused MET-mediated mouse BA/F3 cell proliferation after 48 hrs by cell titre blue based spectrophotometry
[4] = Inhibition of Met-mediated scattering in HGF-stimulated […] cells pre-incubated overnight prior to HGF stimulation for 24 hrs measured after 24 to 48 hrs

O=C(Cc1cc(C(F)(F)F)cc(C(F)(F)F)c1)N[C@@H](Cc1ccccc1)C(=O)Nc1ccc(-c2cn3c(n2)sc2ccccc23)cc1
IC50 [1]: 811 nM | IC50 [2]: 321 nM | IC50 [3]: 4000 nM | IC50 [4]: 171 nM

O=C(Cc1cc(C(F)(F)F)cc(C(F)(F)F)c1)N[C@H](Cc1ccccc1)C(=O)Nc1ccc(-c2cn3c(n2)sc2ccccc23)cc1
IC50 [1]: 1190 nM | IC50 [2]: 620 nM | IC50 [4]: 206 nM

Cc1[nH]c(/C=C2\C(=O)Nc3ccc(S(=O)(=O)N(C)c4cccc(Cl)c4)cc32)c(C)c1C(=O)N1CCN(C)CC1 [(3Z)-N-(3-CHLOROPHENYL)-3-({3,5-DIMETHYL-4-[(4-METHYLPIPERAZIN-1-YL)CARBONYL]-1H-PYRROL-2-YL}METHYLENE)-N-METHYL-2-OXOINDOLINE-5-SULFONAMIDE]
IC50 [1]: 228 nM | IC50 [2]: 1560 nM | IC50 [4]: 152 nM

— BindingDB's records for doi:10.1016/j.ejmech.2011.10.051 (University of The Mediterranean, 2012)
